These results are taken from patent US20240174690A1, “ANNULATED 2-AMINO-3-CYANO THIOPHENES AND DERIVATIVES FOR THE TREATMENT OF CANCER” (BOEHRINGER INGELHEIM INTERNATIONAL GMBH, priority 2021, published 2024).

Data set [1] concerns the target KRAS (G12C)::SOS1 (Homo sapiens (Human), UniProt P01116, C118S/C51S/C80L/G12C). Put plainly: KRAS::SOS1 AlphaScreen binding assay, KRAS G12C. The essentials: (§1)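 KRAS 1-169 (biotinylated avi-tag) with GST-SOS1 564-1049 and 10 µM GDP in PBS/0.1% BSA/0.05% Tween 20: WT and G13D 10 nM each with 10 nM SOS1; G12D 10 nM and G12C 7.5 nM with 5 nM SOS1. After 30 min, glutathione acceptor/streptavidin donor beads were added for 60 min at RT in the dark, then AlphaScreen read; 4-parameter IC50.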

Data set [2] concerns the target KRAS (WT)::SOS1 (Homo sapiens (Human), UniProt P01116, C118S). Put plainly: KRAS::SOS1 AlphaScreen binding assay, KRAS WT. The essentials: as §1
In general terms: Bead proximity is the source of the signal in Alpha formats.

For data set [3], the system named is LOVO cells. The data set can be described thus: LOVO CTG proliferation assay (120 h) (CRC, G13D). It is filed as cell-based. The settings on record: CTG 120 h. Put shortly: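 LOVO cells, 1000 per well in DMEM + 10% FCS, were plated overnight and then dosed with compound from DMSO stock. After 120 h at 37 °C, viability was read by CellTiter-Glo luminescence as a percentage of DMSO controls. IC50 was derived by four-parameter non-linear regression.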

The target of data set [4] is CYP3A4 (Homo sapiens (Human), UniProt P08684). The data set can be described thus: Mechanism based inhibition of CYP3A4 assay (MBI 3A4). It is filed as in vitro ADME. The settings on record: hydroxy-midazolam formation after 30 min vs 0 min preincubation, 25 uM, human liver microsomes. The essentials: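 Human CYP3A4 activity after 30 min vs 0 min preincubation with test compound; incubate then diluted 1:10 and midazolam added for a 15 min main incubation. Quenched with acetonitrile; hydroxy-midazolam quantified by LC/MS-MS and expressed as % of the 0 min preincubation formation.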

The structures appear in SMILES notation.

Sequence of CYP3A4 (P08684 whole entry): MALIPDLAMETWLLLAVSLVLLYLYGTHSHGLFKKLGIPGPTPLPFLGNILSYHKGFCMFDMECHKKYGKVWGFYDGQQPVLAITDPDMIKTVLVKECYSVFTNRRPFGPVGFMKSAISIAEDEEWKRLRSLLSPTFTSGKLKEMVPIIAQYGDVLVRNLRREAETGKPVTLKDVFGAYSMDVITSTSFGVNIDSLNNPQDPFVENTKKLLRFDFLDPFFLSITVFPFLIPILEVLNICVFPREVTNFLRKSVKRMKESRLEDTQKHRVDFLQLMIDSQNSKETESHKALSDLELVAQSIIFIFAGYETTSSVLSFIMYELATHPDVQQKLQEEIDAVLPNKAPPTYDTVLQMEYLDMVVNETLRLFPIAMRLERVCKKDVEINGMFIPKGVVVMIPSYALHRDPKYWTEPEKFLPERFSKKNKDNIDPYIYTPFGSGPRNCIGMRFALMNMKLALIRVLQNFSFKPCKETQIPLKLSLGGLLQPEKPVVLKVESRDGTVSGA
Sequence of KRAS (G12C)::SOS1 (P01116 other isoform, or with tags, fused parts or gaps G12C/C51S/C80L/C118S): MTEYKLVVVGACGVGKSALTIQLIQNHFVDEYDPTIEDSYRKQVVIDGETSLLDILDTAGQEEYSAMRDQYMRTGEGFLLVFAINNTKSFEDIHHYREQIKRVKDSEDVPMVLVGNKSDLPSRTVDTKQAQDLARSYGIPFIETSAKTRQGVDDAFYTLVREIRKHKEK
Sequence of KRAS (WT)::SOS1 (P01116 other isoform, or with tags, fused parts or gaps C118S): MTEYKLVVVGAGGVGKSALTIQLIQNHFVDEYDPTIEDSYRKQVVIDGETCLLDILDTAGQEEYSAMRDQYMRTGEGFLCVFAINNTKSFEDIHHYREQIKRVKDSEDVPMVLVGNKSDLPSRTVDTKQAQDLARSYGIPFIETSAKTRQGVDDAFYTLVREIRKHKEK

Usually IC50 stands for the concentration needed to halve the response being measured. A low value points to greater potency. For `C[C@H](Oc1cc(-n2ccc(C(=O)N[C@H]3CCOC3)n2)nc(-c2noc3c2CCC[C@@]32CCCc3sc(N)c(C#N)c32)n1)[C@@H]1CCCN1C` [II-193], the IC50 was found to be 1 nM in data set [1], 6 nM in data set [2] and 12 nM in data set [3]. In addition, the “MBI 3A4” value in data set [4] is recorded as 61%.
With `C[C@H](Oc1cc(-n2ccc(C(=O)N[C@@H]3CCOC3)n2)nc(-c2noc3c2CCC[C@@]32CCCc3sc(N)c(C#N)c32)n1)[C@@H]1CCCN1C` [II-192], the concentration for half-maximal inhibition (IC50) in data set [1] is 1 nM; in data set [2] it was 5 nM; in data set [3] (Homo sapiens), 32 nM. The “MBI 3A4” value in data set [4] came out at 49%.
The corresponding values for `COCCNC(=O)c1ccn(-c2cc(O[C@@H](C)[C@@H]3CCCN3C)nc(-c3noc4c3CCC[C@@]43CCCc4sc(N)c(C#N)c43)n2)n1` [II-195] are 1 nM, 3 nM, 12 nM and 56%.
For `C[C@H](Oc1cc(-n2ccc(-c3cnccn3)n2)nc(-c2noc3c2CCC[C@@]32CCCc3sc(N)c(C#N)c32)n1)[C@@H]1CCCN1C` [II-130] the same measures were 2 nM, 5 nM, 190 nM and 67%.
As for `C[C@H](Oc1cc(N2CCN(C)C3(COC3)C2)nc(-c2noc3c2CCC[C@@]32CCCc3sc(N)c(C#N)c32)n1)[C@@H]1C[C@@H](F)CN1C` [II-148], the values for the half-inhibitory concentration (IC50) in data set [1], in data set [2] and in data set [3] (Homo sapiens) were 2 nM, 5 nM and 109 nM, respectively. The “MBI 3A4” value in data set [4] came out at 55%.
Consider `C[C@H](Oc1cc(-n2cc3c(n2)CN(C)C3)nc(-c2noc3c2CCC[C@@]32CCCc3sc(N)c(C#N)c32)n1)[C@@H]1CCCN1C` [II-174], for which the IC50 in data set [1] was 2 nM; in data set [2], 4 nM; in data set [3] (Homo sapiens), 139 nM.
As to `C[C@H](Oc1cc(N2CCN(C)C3(CC3)C2)nc(-c2noc3c2CCC[C@@]32CCCc3sc(N)c(C#N)c32)n1)[C@@H]1C[C@@H](F)CN1C` [II-149], the half-inhibitory concentration (IC50) in data set [1] is 8 nM; in data set [2], 12 nM; in data set [3] (Homo sapiens), 270 nM. Besides, in data set [4], the “MBI 3A4” value amounted to 42%.
Take `C[C@H](Oc1cc(-c2cccc(C(N)=O)c2)nc(-c2noc3c2CCC[C@@]32CCCc3sc(N)c(C#N)c32)n1)[C@@H]1CCCN1C` [II-133]: the half-inhibitory concentration (IC50) in data set [1] worked out at 2 nM; in data set [2] it was 8 nM; in data set [3] (Homo sapiens), 459 nM.
For `CO[C@H]1CCN(C)[C@@H]1[C@H](C)Oc1cc(-n2ccc(C(=O)N[C@@H](C)c3ccccn3)n2)nc(-c2noc3c2CCC[C@@]32CCCc3sc(N)c(C#N)c32)n1` [II-196] the same measures were 1 nM, 6 nM and 15 nM.
As for `C[C@H](Oc1cc(N2CCNC3(COC3)C2)nc(-c2noc3c2CCC[C@@]32CCCc3sc(N)c(C#N)c32)n1)[C@@H]1C[C@@H](F)CN1C` [II-150], the results for the concentration for half-maximal inhibition (IC50) in data set [1], in data set [2] and in data set [3] (Homo sapiens) were 2 nM, 3 nM and 81 nM, respectively. Moreover, in data set [4], the “MBI 3A4” value is 49%.
The corresponding values for `C[C@H](Oc1cc(-n2cc3c(n2)CCN(C)C3)nc(-c2noc3c2CCC[C@@]32CCCc3sc(N)c(C#N)c32)n1)[C@@H]1CCCN1C` [II-141] are 2 nM, 3 nM, 284 nM and 88%.
The corresponding values for `C[C@H](Oc1cc(-n2cc(-c3cncs3)nn2)nc(-c2noc3c2CCC[C@@]32CCCc3sc(N)c(C#N)c32)n1)[C@@H]1CCCN1C` [II-125] are 2 nM, 9 nM, 97 nM and 68%.
In the case of `CO[C@@H]1C[C@@H]([C@H](C)Oc2cc(N3CCN(C)C4(CC4)C3)nc(-c3noc4c3CCC[C@@]43CCCc4sc(N)c(C#N)c43)n2)N(C)C1` [II-152], the results for the IC50 in data set [1], in data set [2] and in data set [3] (Homo sapiens) were 7 nM, 14 nM and 650 nM, respectively.
The corresponding values for `C[C@H](Oc1nc(-c2noc3c2CCC[C@@]32CCCc3sc(N)c(C#N)c32)nc(N2C[C@H](C)NC3(CC3)C2)c1F)[C@@H]1C[C@@H](F)CN1C` [II-157] are 2 nM, 5 nM and 136 nM.
The corresponding values for `C[C@H](Oc1nc(-c2noc3c2CCC[C@@]32CCCc3sc(N)c(C#N)c32)nc(N2CCNC3(CC3)C2)c1Cl)[C@@H]1C[C@@H](F)CN1C` [II-156] are 2 nM, 6 nM and 226 nM.
As for `C[C@H](Oc1cc(N2CCN[C@@H](C)C2)nc(-c2noc3c2CCC[C@@]32CCCc3sc(N)c(C#N)c32)n1)[C@@H]1CCCN1C` [II-162], the IC50 in data set [1] amounted to 3 nM; in data set [2] it was 8 nM; in data set [3] (Homo sapiens), 401 nM. In addition, the “MBI 3A4” value in data set [4] amounted to 84%.
`C[C@H](Oc1cc(N2CCN(C)C3(CC3)C2)nc(-c2noc3c2CCC[C@@]32CCCc3sc(N)c(C#N)c32)n1)[C@@H]1CCCN1C` [II-171]: the figures for the 50% inhibitory concentration (IC50) in data set [1], in data set [2] and in data set [3] (Homo sapiens) were 5 nM, 7 nM and 593 nM, respectively. In data set [4], the “MBI 3A4” value is 63%.
